Measured values: patent US12202790B2, “Sulfonamide derivatives having selective Nox inhibiting activity” (GLUCOX BIOTECH AB, priority 2018, dated 2025)

Tests used:
Hippocampal brain slices = test: In vitro stroke model: hippocampal brain slices subjected to hypoxia and glucose deprivation; type: cell-based; conditions: hypoxia and glucose deprivation 5 hours, viability after 24 hours of culture
Experimental: (§1) FIG. 4 is a bar chart showing cell viability (in % of basal cell viability) of hippocampal brain slices subjected to hypoxia and starvation for 5 h and then cultured for 24 h in the absence (OGD) or presence of Example 11 at a concentration of 0.3 μM, 3 μM, or 10 μM. Basal=no hypoxia or starvation, cells cultured in the presence of culture medium only. OGD=5 h of hypoxia or starvation, cells cultured in the presence of culture medium only.
as §1, with “FIG. 5” for “FIG. 4”, “Example 17” for “Example 11”, “of 0.3,” for “of 0.3 μM,”, “3” for “3 μM,”
Hippocampal brain slices and human brain micro-vascular endothelial cells were subjected to hypoxia and glucose deprivation (starvation) for 5 hours and were tested for viability after 24 hours of culture in the presence of Example 11 or Example 17 at different concentrations. Additionally, human brain micro-vascular endothelial cells were subjected to hypoxia and glucose deprivation (starvation) for 6 hours and were tested for viability after 24 hours of culture in the presence of Example 44 at various concentrations.

C57B16/J mice = test: Mouse model of acute ischemic stroke by transient middle cerebral artery occlusion (tMCAO); type: in vivo; conditions: 2.56 mg/kg ip, 6 times once per hour, from 1 hour after reperfusion or 30 min before reperfusion, 24 h
Experimental: A mouse model of acute ischemic stroke by transient middle cerebral artery occlusion (tMCAO) was used. The model has been described by Kleinschnitz C, et al. 2010, J Exp Med 203(3):513-518. C57B16/J mice were anesthetized with isoflurane (0.8% in oxygen). The animal was placed on a heating-pad, and rectal temperature was maintained at 37.0° C. using a servo-controlled rectal probe-heating pad (Cibertec, Spain). Transient cerebral ischemia was induced using an intraluminal filament technique. Using a surgical microscope (Tecnoscopio OPMI pico, Carl Zeiss, Meditec Iberia SA, Spain), a midline neck incision was made and the right common and external carotid arteries were isolated and permanently ligated. […]
After sacrificing the mice (24 h reperfusion), brains were quickly removed and cut in four 2-mm thick coronal sections using a mouse brain slice matrix (Harvard Apparatus, Spain). […] Indirect infarct volumes were calculated by volumetry (ImageJ software, National Institutes of Health, USA) according to the following equation: Vindirect (mm^3)=Vinfarct×(1−(Vih−Vch)/Vch), where the term (Vih−Vch) represents the volume difference between the ischemic hemisphere and the control hemisphere and (Vih−Vch)/Vch expresses this difference as a percentage of the control hemisphere (FIGS. 7 and 9).

Human islet cells = test: Effects on human islet cell viability; type: cell-based; conditions: 48 h, compound 1 μM
Experimental: Human islet cells were incubated at control condition, with the cytokines IL-1β (20 ng/ml)+IFN-γ (20 ng/ml), or with palmitate (1.5 mM+2% BSA)+high glucose (20 mM) (PH) for 2 days with or without Nox1 inhibitor ML-171 (2 μM), Nox2 inhibitor Phos-I2 (2 μM) or Example 17 (1 μM). Islets were photographed in an inverted fluorescence microscope and the intensities of red (PI) and blue (Bisbenzimide) signals were quantified using Image J software. Results are indicated as mean±S.E.M for 7 human islet donors.

[1] = test system: rat lens epithelial explants; test: TGFβ-induced lens epithelial to mesenchymal transition (EMT) in rat lens epithelial explants; type: cell-based; conditions: co-treatment with TGFβ, Example 11 2.4 μM, Example 17 0.3 μM; for progression of TGFβ-induced EMT: 5 days culture
Experimental: Ocular tissues were collected from postnatal-day-21 albino Wistar rats (Rattus norvegicus) that were sacrificed by asphyxiation and subsequent cervical dislocation.
(§2) Lens epithelial explants were prepared as previously described (Wang Q, et al., Investigative ophthalmology & visual science. 2010; 51(7):3599-610) and cultured in Medium 199 (M199) with Earle's salts (Life Technologies, USA), supplemented with 50 μg/mL L-glutamine, 50 IU/mL penicillin/50 μg/mL streptomycin (Thermo Scientific, USA), 2.5 μg/mL Amphostat B (Thermo Scientific, USA) and 0.1% bovine serum albumin (BSA) (Sigma, USA). M199 was equilibrated at 37° C., 5% CO2. To induce EMT, recombinant TGF-β2 was added to media in each culture dish at a working concentration of […] (R&D Systems, USA). Prior to the addition of TGF-β2, some explants were pre-treated for 30 minutes with Example 11 or Example 17, at working concentrations of 2.4 μM and 0.3 μM, respectively. The progression of EMT in live cells was observed and captured using phase-contrast microscopy (Olympus CK2, Japan) and a digital camera (Leica DFC-280, Germany). Percentage cell loss quantification was performed using the thresholding function of ImageJ (NIH), such that cells could be distinguished from bare lens capsule.

[2] = test system: rat lens epithelial explants; test: qRT-PCR gene expression analysis in TGFβ-treated rat lens epithelial explants; type: cell-based; conditions: 48 hours of culture, Example 11 2.4 μM, Example 17 0.3 μM; for aSMA expression (mRNA): Example 17 at a higher degree than Example 11
Experimental: as §2
Quantitative RT-PCR (qRT-PCR) gene expression analysis was performed as previously described (Shu D, et al., Investigative ophthalmology & visual science. 2017; 58(2):781-96.).
For data analysis, the 2^-ΔΔCt method was used to estimate the relative fold change in gene expression. Using the 2^-ΔΔCt method, the gene of interest was quantified relative to, firstly, the housekeeping gene, GAPDH and, secondly, to relative gene expression in untreated explants.

Row | Compound | neuroprotective effect (cell viability) (Hippocampal brain slices) | brain damage (TTC stained coronal brain sections) (C57B16/J mice) | infarct volume (C57B16/J mice; compared to control animals) | human islet cell death with cytokines (Human islet cells; IL-1β (20 ng/ml)+IFN-γ (20 ng/ml)) | human islet cell death with high glucose+palmitate (Human islet cells; palmitate (1.5 mM)+high glucose (20 mM)) | progression of TGFβ-induced EMT [1] | morphology of remaining cells by day 5 [1] | TGFβ-driven upregulation of Col1A and Fn (mRNA) [2] | aSMA expression (mRNA) [2]
1 | Cc1ccccc1CCNS(=O)(=O)c1c(Cl)cc(Br)cc1Cl [Example 17, 4-bromo-2,6-dichloro-N-[2-(2-methylphenyl)ethyl]benzene-1-sulfonamide] | neuroprotective effect | significant reduction in brain damage | substantial reduction of infarct volume | protected both against cytokines and high glucose+palmitate | protected both against cytokines and high glucose+palmitate | appeared to delay the progression of EMT | some of the remaining cells appeared epithelial-like | downregulate the TGFβ-driven upregulation of Col1A and Fn | downregulate aSMA expression
2 | Cc1ccccc1CCNS(=O)(=O)c1c(C)cccc1Cl [Example 11, 2-chloro-6-methyl-N-[2-(2-methylphenyl)ethyl]benzene-1-sulfonamide] | neuroprotective effect |  |  |  |  | a similar effect was obtained | some of the remaining cells appeared epithelial-like | downregulate the TGFβ-driven upregulation of Col1A and Fn | downregulate aSMA expression
